# From patent US6652853B2, “Method for treating cancer using A33 specific antibodies and chemotherapeutic agents” (Ludwig Institute for Cancer Research, priority 2001, dated 2003)
# Tested on: cell cultures (cancer cells)
# Assay: Cytotoxic effects in cell cultures, QFA, calicheamicin and huA33 conjugates
# Conditions: added to cell cultures
substance,measurement,value
calicheamicin,cytotoxic effects in vitro,weak cytotoxic effects
